According to PMC8611018, “Apelin-13 in septic shock: effective in supporting hemodynamics in sheep but compromised by enzymatic breakdown in patients” (Scientific Reports, 2021):

Experiments:
[1] = Apelinergic stability in human plasma; type: in vitro ADME; settings: 27 μL plasma + 6 μL 1 mM aqueous peptide, 37 °C, 0, 0.5, 1, 2, 4, 6 h, UPLC-MS, mean ± SEM
Experimental: (§1) Additional extraction on […] column (Phenomenex, Torrance, CA, USA) with overnight freeze-drying was mandatory for samples used for ELA measurements. […] LS-F25717; […] ELA was quantified using a commercially available ELISA kit (Peninsula Laboratories International; S-1508; CA, USA) with a measurement range of 0-100 ng/mL. […] Proteolytic degradation was stopped by adding 140 μL of 50% acetonitrile, 50% ethanol, and 0.25 mM N, N-dimethylbenzamide at 0, 0.5, 1, 2, 4, or 6 h. […] Next, the reaction mixture was diluted with 80 μL of water and analyzed overnight with an Acquity class H ultra-performance liquid chromatography-mass spectrometry (UPLC-MS) system from Waters (Milford, MA, USA) (column: Acquity UPLC CSH C18, 2.1 mm × 50 mm, packed with 1.7 μm particles). Results were expressed as a percentage of the initial zero-time spike area.

[2] = test system: sheep with fecal peritonitis-induced septic shock; test: Hemodynamic and renal dose-response to infusion in sheep with fecal peritonitis-induced septic shock; type: in vivo
Experimental: The day before surgery, autologous stool was retrieved for treatment of the sheep selected for fecal peritonitis induction and mixed overnight in 0.9% normal saline (NS) and 5% D-glucose at 37 °C. The animals were fasted overnight. On the morning of the day of surgery, sheep received premedication to ease animal handling and intubation (i.e., intramuscular injections of 0.1 mg/kg atropine and 10 mg/kg ketamine) before routing to the operating room for insertion of an external jugular vein catheter and administration of a 500 mL bolus of Ringer’s lactate (RL). Sheep were then continuously infused with RL (3 mL/kg/h) and 5% D-glucose (2 mL/kg/h). Tracheal intubation (7–8 Fr) was performed in a caddy under isoflurane (1–2%) mask inhalation and by an anterior approach. Sheep were then placed in the supine position on heating pads before ventilator connection (Aestiva 15, Datex-Ohmeda, USA). […]
(§2) Baseline hemodynamic parameters and vital sign measurements (HR: heart rate, MAP: mean arterial pressure, SVR: systemic vascular resistance, CVP: central venous pressure, PAOP: pulmonary artery occlusion pressure and wedge pressure), dP/dt max and min, LV end-systolic pressure (LVESP), CO, stroke volume (SV), GEDV, and extravascular lung water (EVLW) were then recorded. Blood temperature, baseline central venous O2 saturation (ScvO2), and arterial blood gas (RapidLab® 348, Siemens Healthcare Diagnostics, Montreal, Qc, Canada) and lactate levels (Lactate Plus, Nova Biomedical, Waltham, MA, USA) were also monitored. A slightly modified sheep SOFA[46] score was calculated after reached shock criteria defining the “shock” time point and before euthanasia named the “final” time points, defined as a MAP below 65 mmHg for level 1 of the cardiovascular system assessment and assuming a constant level 3 of the central nervous system (Glasgow score 6–9) at “shock”. […]
After 2 g/kg autologous stool slurry was injected into both intra-peritoneal (i.p.) tubes, RL and 5% D-glucose infusions were stopped, and all the above parameters were monitored every 30 min. […]

healthy sheep = test: Hemodynamic and diuretic dose-response to infusion in healthy sheep; type: in vivo
Experimental: This study was approved by our institutional ethics review board (CFPA: Comité Facultaire de Protection des Animaux, #023-18BR). Thirty-six male Canadian Arcott sheep (33 ± 3 kg, 3 to 4 months old;) were included in this study according to the Animal Research: Reporting of In Vivo Experiments (ARRIVE) guidelines and received care in compliance with the Canadian Council of Animal Care and National Institutes of Health (NIH) guidelines. Animals were housed for at least 48 h before the experiment in dedicated accommodations and bedding.
The day before surgery, autologous stool was retrieved for treatment of the sheep selected for fecal peritonitis induction and mixed overnight in 0.9% normal saline (NS) and 5% D-glucose at 37 °C. The animals were fasted overnight. On the morning of the day of surgery, sheep received premedication to ease animal handling and intubation (i.e., intramuscular injections of 0.1 mg/kg atropine and 10 mg/kg ketamine) before routing to the operating room for insertion of an external jugular vein catheter and administration of a 500 mL bolus of Ringer’s lactate (RL). […]
as §2

[3] = Apelinergic stability in sheep plasma; type: in vitro ADME; settings: sheep plasma of baseline and shock time points (n = 18); 27 μL plasma + 6 μL 1 mM aqueous peptide, 37 °C, 0 to 6 h, UPLC-MS
Experimental: as §1

sheep APJ [4] = test: BRET assay for β-arrestin-2 recruitment in HEK293 cells expressing sheep APJ; type: cell-based, sheep (Ovis aries); settings: BRET2, HEK293 cells with sheep APJ, 30 min stimulation at 37 °C, n = 3
Experimental: (§3) BRET experiments were performed as previously described. In brief, HEK293 cells were transfected with plasmids encoding sheep APJ, Gαi1-RlucII ([…]β1 (from cDNA.org) (for the BRET-based Gαi1 activation assay) or encoding sheep APJ-GFP10 and RlucII-β-arrestin2 (for the BRET-based β-arrestin-2 recruitment assay)[50]. To perform the BRET assays, 50,000 cells/well were transferred into white 96-well plates (BD Bioscience, Mississauga, Canada) and incubated at 37 °C overnight. […] After stimulation, 5 μM coelenterazine 400A was added to each well, and the plate was read on a GeniosPro plate reader using the BRET2 filter set (Tecan, Austria). The BRET2 ratio was calculated as […].

sheep APJ [5] = test: BRET assay for Gαi1 activation in HEK293 cells expressing sheep APJ; type: cell-based, sheep (Ovis aries); settings: BRET2, HEK293 cells with sheep APJ, 5 min stimulation at 37 °C, n = 3
Experimental: as §3

sheep APJ [6] = test: Competitive radioligand binding with [125I]-(pyr1)Apelin-13 on HEK293 cells expressing sheep APJ; parameters: species or system sheep (Ovis aries); settings: HEK293 cells with HA-tagged sheep APJ, 0.2 nM [125I]-(pyr1)APLN-13, 1 h at room temperature, n = 3; human APLN-13 compared with human ELA
Description: The sequence of the apelin receptor was synthetized with gBlocks Gene Fragments (Integrated DNA Technologies, USA) and subcloned into […]1 (a modified vector in which we replaced the YFP sequence with that for two HA tags) with an NEBuilder HiFi DNA Assembly Cloning Kit (New England Biolabs, MA, USA). The Ovis aries APJ sequence was obtained from the RefSeq database (XM_027979777.1). […] Thermo Scientific Pierce, Canada)[49]. […] The γ emission was quantified using a γ-counter 1470 Wizard from PerkinElmer (Waltham) (80% efficiency). […] All binding data were calculated and plotted using GraphPad Prism 8 (La Jolla, CA) and represent the mean ± SEM of three replicates.

half-life ([1]; plasma of patients with sepsis/septic shock (n = 22)): 1.15 ± 0.2 h
half-life ([1]; plasma, plasma of healthy volunteers (n = 10)): 4.3 ± 0.75 h
plasma stability (residual percentage of non-degraded peptide) [3]: unaffected
Compound: CSCC[C@H](NC(=O)[C@@H](NC(=O)[C@H](CC(C)C)NC(=O)[C@H](CC(N)=O)NC(=O)[C@@H](NC(=O)[C@@H]1CCCN1C(=O)[C@H](CCCNC(=N)N)NC(=O)[C@@H](N)CCC(N)=O)C(C)C)[C@@H](C)O)C(=O)N[C@@H](CCCNC(=N)N)C(=O)N[C@@H](CCCNC(=N)N)C(=O)N[C@@H](CCCCN)C(=O)N[C@@H](CC(C)C)C(=O)N[C@@H](CCCNC(=N)N)C(=O)N[C@@H](CCCCN)C(=O)N[C@@H](Cc1c[nH]cn1)C(=O)N[C@@H](CC(N)=O)C(=O)N[C@H]1CSSC[C@@H](C(=O)N[C@@H](CCSC)C(=O)N2CCC[C@H]2C(=O)N[C@@H](CC(C)C)C(=O)N[C@@H](Cc2c[nH]cn2)C(=O)N[C@@H](CO)C(=O)N[C@@H](CCCNC(=N)N)C(=O)N[C@H](C(=O)N2CCC[C@H]2C(=O)N[C@@H](Cc2ccccc2)C(=O)N2CCC[C@H]2C(=O)O)C(C)C)NC(=O)[C@H](CCCNC(=N)N)NC(=O)[C@H](CCCNC(=N)N)NC(=O)[C@H](CCC(N)=O)NC(=O)[C@H](CC(C)C)NC1=O [ELA, Elabela]
cardiac output (CO) ([2]; septic sheep after fluid resuscitation, 2.5 nMol/kg/h, mean ± SEM, n = 6/group): 2.71 ± 0.41 L/min
endpoint circulating levels of lactate, cortisol and Tn T ([2]; septic sheep, at the end of the last d5 infusion, n = 6/group): neither APLN-13 nor ELA infusion impacted
FP-induced decreases of monitored hemodynamic parameters ([2]; septic sheep, incremental doses 0.025 to 12.5 nmol/kg/h): failed to alleviate these decreases
mean arterial pressure (MAP) (healthy sheep; 6.25 nMol/kg/h, mean ± SEM, n = 6/group): 65.4 ± 8.1 mmHg
systemic vascular resistance (healthy sheep; incremental doses 0.025 to 12.5 nmol/kg/h): not significantly impacted
heart rate (HR) and global end-diastolic volume (GEDV) (healthy sheep; incremental doses 0.025 to 12.5 nmol/kg/h, PiCCO): unchanged
potency and efficacy in β-arrestin-2 recruitment, compared with APLN-13 (sheep APJ [4]): lower potency and efficacy
potency in Gαi1 activation, compared with APLN-13 (sheep APJ [5]): lower potency
affinity for sheep APJ (sheep APJ [6]): similar
